Non-standard residues stand in square brackets, D forms with d. Residues, ends and D or L forms follow the SMILES beside them.
What was measured:
[1] = Calcein leakage from liposomes; type: biochemical; settings: 10 min at room temperature, pH 6.0, triplicate assays
Experimental: Liposomes were prepared as previously described with some modifications. S. aureus-mimetic liposomes[17][26] and mammalian-mimetic liposomes[27] were prepared by combining phospholipid mixtures (cardiolipin: L-α-phosphatidyl-DL-glycerol = 1:3 (mol/mol)) and 2-dioleoyl-sn-glycero-3-phosphocholine:1,2-dioleoyl-sn-glycero-3-phosphoethanolamine:Cholesterol = 4:2:3 (mol/mol/mol)), respectively. A 50 mM calcein solution was prepared by mixing 100 mg calcein with 3.1 ml of solution A (0.3 ml of 1 M Tris-HCl (pH 7.4), 0.9 ml of 5 M sodium hydroxide, and 13.8 ml of water). The liposomes were prepared by adding 1 ml of calcein solution to the dried lipid mixtures, followed by vortexing for 10 min at room temperature. The liposome solution (1 ml) was centrifuged at 3000 × g for 10 min, and the precipitate was resuspended in 1 ml of 20 mM Tris-HCl (pH 7.4) containing 150 mM sodium chloride. The centrifugation step was repeated two more times. Finally, the precipitate was suspended in 100 μl of 20 mM Tris-HCl (pH 7.4) containing 150 mM sodium chloride.
Liposome suspensions were prepared by diluting of 1 μl of liposomes into 40 ml of 10 mM phosphate buffer (pH6.0) containing 130 mM sodium chloride. Peptides were serially diluted in 10 mM phosphate buffer (pH 6.0) containing 130 mM sodium chloride and 1% dimethyl sulfoxide. […]

S. aureus peptidoglycan = test: Peptidoglycan-binding assay; set-up: species or system Staphylococcus aureus; settings: biotin-labeled peptides on immobilized peptidoglycan; 37 °C, 2 h; avidin-labeled peroxidase, absorbance 450 nm; triplicate assays
Experimental: Peptidoglycan-binding assays were performed as previously described with some modifications. Peptidoglycan from S. aureus (100 μg/ml) was suspended in 0.2% trifluoroacetic acid and sonicated twice for 10 sec at setting 1 using a Branson sonifier model S-150D. The peptidoglycan suspension (50 μl) was used to coat the wells of a flat bottom 96-well microplate (Thermo Fisher Scientific). The plate was incubated at room temperature until the water evaporated. The plate was placed at 60 °C for 1 h to dry out completely, and then blocked with 200 μl of 5 mg/ml bovine serum albumin in binding buffer (10 mM phosphate buffer (pH 6.0) containing 130 mM sodium chloride, 0.05% Tween 20, and 0.01% trifluoroacetic acid) at 37 °C for 2 h. The plate was washed four times with 200 μl of binding buffer. Biotin-labeled peptides in 100 μl of binding buffer containing 0.5% dimethyl sulfoxide were added to the wells and incubated at 37 °C for 2 h. Detection of biotin-labeled peptides was performed using Vectastain ABC reagent (Vector Laboratories) according to manufacturer’s instructions. The wells were washed four times with binding buffer, then 100 μl of avidin-labeled peroxidase was added to each well, and the plate was incubated at 37 °C for 1 h. The wells were washed again as described above. […] Absorbance was measured at 450 nm.

In the case of `CC(C)C[C@@H](NC(=O)[C@H](N)CCCCN)C(=O)N[C@H](CCCCN)C(=O)N[C@H](CC(C)C)C(=O)N[C@H](CC(C)C)C(=O)N[C@H](CC(C)C)C(=O)N[C@H](CC(C)C)C(=O)N[C@H](CC(C)C)C(=O)N[C@H](CCCCN)C(=O)N[C@H](CC(C)C)C(=O)N[C@H](CCCCN)C(N)=O` [D-form KLKLLLLLKLK-NH2] (H-[dK][dL][dK][dL][dL][dL][dL][dL][dK][dL][dK]-NH2; N-terminus assumed), the “calcein release from liposomes” value ([1]; S. aureus-mimetic liposomes (cardiolipin:phosphatidylglycerol 1:3)) was “released calcein”, the “calcein release from liposomes” value ([1]; mammalian-mimetic liposomes (phosphatidylcholine:phosphatidylethanolamine:cholesterol 4:2:3)) was “neither D-form nor L-form KLKLLLLLKLK-NH2 was able to release calcein” and the “affinity for S. aureus peptidoglycan, D-form compared with L-form” value (S. aureus peptidoglycan) was “higher affinity”.
